Measurements taken from US20230263822A1, “MODULATION OF FACTOR 11 EXPRESSION” (Ionis Pharmaceuticals, Inc., priority 2008, published 2023).
Strand notation (5' to 3'): a small letter for the sugar, then the base; units joined by * are phosphorothioate-linked, units joined directly phosphodiester-linked; [ ] holds rarer units or linkages, { } end groups; capitals alone tell only the bases. e = 2'-O-(2-methoxyethyl) (MOE); [5mC] = 5-methylcytosine; d = 2'-deoxy (DNA)

Assays:
Factor 11 mRNA = Factor 11 mRNA in cynomolgus monkey liver, day 55 (Example 46); format: in vivo, cynomolgus monkeys; details: 25 mg/kg subcutaneously, primer probe set LTS00301
Procedure: (§1) Groups, each consisting of two male and two female monkeys, were injected subcutaneously with 25 mg/kg of ISIS 416850, ISIS 449709, ISIS 445522, ISIS 449710, ISIS 449707, ISIS 449711, ISIS 449708, 416858, and ISIS 445531. Antisense oligonucleotide was administered to the monkeys at 25 mg/kg three times per week for week 1 and 25 mg/kg twice per week for weeks 2 to 8. A control group, consisting of two male and two female monkeys was injected subcutaneously with PBS according to the same dosing regimen. Body weights were taken 14 days and 7 days before the start of treatment and were then measured weekly throughout the treatment period. Blood samples were collected 14 days and 5 days before the start of treatment and subsequently several times during the dosing regimen for PT and aPTT measurements, and measurement of various hematologic factors. On day 55, the monkeys were euthanized by exsanguination while under deep anesthesia, and organs harvested for further analysis.
On day 55, RNA was extracted from liver tissue for real-time PCR analysis of Factor 11 using primer probe set LTS00301. Results are presented as percent inhibition of Factor 11, relative to PBS control.

[1] = Viscosity of ISIS antisense oligonucleotides, micro-viscometer at 25 °C (Example 47); format: physicochemical; details: for Concentration: concentration of the viscosity sample, UV reading at 260 nM at 85° C.; for Viscosity: in water, micro-viscometer at 25° C., at the concentration of the same line
Procedure: The viscosity of antisense oligonucleotides targeting human Factor 11 was measured with the aim of screening out antisense oligonucleotides which have a viscosity more than 40 cP at a concentration of 165-185 mg/mL.
ISIS oligonucleotides (32-35 mg) were weighed into a glass vial, 120 μL of water was added and the antisense oligonucleotide was dissolved into solution by heating the vial at 50° C. Part of (75 μL) the pre-heated sample was pipetted to a micro-viscometer (Cambridge). The temperature of the micro-viscometter was set to 25° C. and the viscosity of the sample was measured. Another part (20 μL) of the pre-heated sample was pipetted into 10 mL of water for UV reading at 260 nM at 85° C. (Cary UV instrument).

Factor 11 protein = Factor 11 protein in monkey plasma by sandwich ELISA (Example 46); format: in vivo, cynomolgus monkeys; details: 25 mg/kg subcutaneously
Procedure: as §1
Plasma samples from all monkey groups taken on different days were analyzed by a sandwich-style ELISA assay (Affinity Biologicals Inc.) using an affinity-purified polyclonal anti-Factor 11 antibody as the capture antibody and a peroxidase-conjugated polyclonal anti-Factor 11 antibody as the detecting antibody. Monkey plasma was diluted 1:50 for the assay. Peroxidase activity was expressed by incubation with the substrate o-phenylenediamine. The color produced was quantified using a microplate reader at 490 nm and was considered to be proportional to the concentration of Factor 11 in the samples.
The results are presented in Table 147, expressed as percentage reduction relative to that of the PBS control.

human Factor 11 mRNA = assay: Dose-dependent inhibition of human Factor 11 in HepG2 cells, electroporation 375-12,000 nM (Example 32); format: cell-based; details: for Percent inhibition of Factor 11 mRNA at 375 nM / Percent inhibition of Factor 11 mRNA at 750 nM / IC50: electroporation; for Percent inhibition of Factor 11 mRNA at 375 nM / Percent inhibition of Factor 11 mRNA at 750 nM / Percent inhibition of Factor 11 mRNA at 1,500 nM / Percent inhibition of Factor 11 mRNA at 3,000 nM / Percent inhibition of Factor 11 mRNA at 6,000 nM / Percent inhibition of Factor 11 mRNA at 12,000 nM: approx. 16 hours, relative to untreated control cells; for Percent inhibition of Factor 11 mRNA at 1,500 nM: electroporation, 1,500 nM; for Percent inhibition of Factor 11 mRNA at 3,000 nM: electroporation, 3,000 nM; for Percent inhibition of Factor 11 mRNA at 6,000 nM: electroporation, 6,000 nM; for Percent inhibition of Factor 11 mRNA at 12,000 nM: electroporation, 12,000 nM; for IC50: Factor 11 mRNA expression
Procedure: These gapmers were tested at various doses in HepG2 cells. Cells were plated at a density of 20,000 cells per well and transfected using electroporation with 375 nM, 750 nM, 1,500 nM, 3,000 nM, 6,000 nM and 12,000 nM concentrations of antisense oligonucleotide, as specified in Table 47. After a treatment period of approximately 16 hours, RNA was isolated from the cells and Factor 11 mRNA levels were measured by quantitative real-time PCR. Human Factor 11 primer probe set RTS 2966 was used to measure mRNA levels. Factor 11 mRNA levels were adjusted according to total RNA content, as measured by RIBOGREEN. Results are presented as percent inhibition of Factor 11, relative to untreated control cells.
ISIS 416850, ISIS 416858, ISIS 445522, and ISIS 445531 (see Table 45 above) were re-tested in vitro along with the microwalk gapmers under the same conditions described above.
The first two listed gapmers in Table 47 are the original gapmers (ISIS 416850 and ISIS 416858) from which the remaining gapmers were designed via microwalk and are designated by an asterisk.

Row | Substance | % inhibition of Factor 11 mRNA in liver relative to the PBS control (Factor 11 mRNA) [%] | Concentration [1] [mg/mL] | Viscosity [1] [cP] | Inhibition of Factor 11 protein relative to the PBS control (percentage reduction) (Factor 11 protein; Day 10, plasma) [%] | Inhibition of Factor 11 protein relative to the PBS control (percentage reduction) (Factor 11 protein; Day 17, plasma) [%] | Inhibition of Factor 11 protein relative to the PBS control (percentage reduction) (Factor 11 protein; Day 24, plasma) [%] | Inhibition of Factor 11 protein relative to the PBS control (percentage reduction) (Factor 11 protein; Day 31, plasma) [%] | Inhibition of Factor 11 protein relative to the PBS control (percentage reduction) (Factor 11 protein; Day 38, plasma) [%] | Inhibition of Factor 11 protein relative to the PBS control (percentage reduction) (Factor 11 protein; Day 45, plasma) [%] | Inhibition of Factor 11 protein relative to the PBS control (percentage reduction) (Factor 11 protein; Day 52, plasma) [%] | Inhibition of Factor 11 protein relative to the PBS control (percentage reduction) (Factor 11 protein; Day 55, plasma) [%] | Inhibition of Factor 11 protein relative to the PBS control (percentage reduction) (Factor 11 protein; Day −5, plasma) [%] | Inhibition of Factor 11 protein relative to the PBS control (percentage reduction) (Factor 11 protein; Day −14, plasma) [%] | Percent inhibition of Factor 11 mRNA at 375 nM (human Factor 11 mRNA) [%] | Percent inhibition of Factor 11 mRNA at 750 nM (human Factor 11 mRNA) [%] | Percent inhibition of Factor 11 mRNA at 1,500 nM (human Factor 11 mRNA) [%] | Percent inhibition of Factor 11 mRNA at 3,000 nM (human Factor 11 mRNA) [%] | Percent inhibition of Factor 11 mRNA at 6,000 nM (human Factor 11 mRNA) [%] | Percent inhibition of Factor 11 mRNA at 12,000 nM (human Factor 11 mRNA) [%] | IC50 (human Factor 11 mRNA) [nM]
1 | 449707 (antisense e[5mC]*eA*e[5mC]*eA*dG*dT*dT*dT*d[5mC]*dT*dG*dG*e[5mC]*eA*eG*eG) [compound 449707] | 47 | 166 | 7 | 16 | 19 | 21 | 29 | 28 | 35 | 29 | 32 | 0 | 0 | 7 | 35 | 63 | 73 | 85 | 91 | 1260
2 | 449708 (antisense eA*e[5mC]*eA*dG*dT*dT*dT*d[5mC]*dT*dG*dG*e[5mC]*eA*eG) [compound 449708] | 46 | 188 | 9 | 7 | 15 | 3 | 14 | 9 | 2 | 6 | 6 | 0 | 1 | 0 | 0 | 22 | 33 | 61 | 85 | 4460
3 | 449709 (antisense eG*e[5mC]*eA*e[5mC]*dA*dG*dT*dT*dT*d[5mC]*dT*dG*dG*d[5mC]*eA*eG*eG*e[5mC]) [compound 449709] | 69 | 171 | 65 | 27 | 35 | 44 | 45 | 46 | 48 | 47 | 50 | 0 | 1 | 52 | 71 | 80 | 87 | 92 | 95 | 380
4 | 449710 (antisense e[5mC]*eA*e[5mC]*dA*dG*dT*dT*dT*d[5mC]*dT*dG*dG*d[5mC]*eA*eG*eG) [compound 449710] | 52 | 186 | 7 | 10 | 14 | 17 | 25 | 20 | 23 | 4 | 24 | 0 | 1 | 2 | 21 | 52 | 70 | 82 | 87 | 1590
5 | 449711 (antisense eA*e[5mC]*dA*dG*dT*dT*dT*d[5mC]*dT*dG*dG*d[5mC]*eA*eG) [compound 449711] | 0 | 209 | 6 | 5 | 3 | 6 | 9 | 2 | 4 | 3 | 5 | 1 | 0 | 6 | 14 | 1 | 7 | 32 | 52 | 11000
